Data on 28 compounds can be found in ChEMBL document CHEMBL5346934 (J Med Chem, 2023).

Where only a bound is given, the exact number is not on record here.

Assay [1] deals with Vaccinia virus. Kind of assay: Antiviral activity against Vaccinia virus Copenhagen infected in African green monkey Vero cells measured after 4 days by colorimetric assay. In kind it is functional, organism-based. The settings on record: Orthopoxvirus vaccinia, 96 h.
A further assay concerns Ectromelia virus. Kind of assay: Antiviral activity against ectromelia virus K-1 infected in Vero cells measured after 4 days by colorimetric assay. The class given is functional, organism-based. Particulars: K-1, Vero, 96 h.
The next assay deals with Cowpox virus. Description: Antiviral activity against Cowpox virus Grishak infected in African green monkey Vero cells measured after 4 days by colorimetric assay. In kind it is functional, organism-based. Particulars: 96 h.
Assay [2] relates to Vaccinia virus. Description: Antiviral activity against Vaccinia virus VG9 infected in African green monkey BSC-1 cells. In kind it is functional, organism-based, Orthopoxvirus vaccinia.
The subject of assay [3] is Vaccinia virus. Description: Antiviral activity against Vaccinia virus infected in African green monkey BSC-1 cells. In kind it is functional, organism-based, Orthopoxvirus vaccinia.
Assay [4] deals with Vaccinia virus. Kind of assay: Antiviral activity against Vaccinia virus infected in African green monkey Vero cells assessed as reduction virus induced cytopathic effect incubated for 24 hrs by MTT assay. The class given is functional, organism-based. Particulars: Orthopoxvirus vaccinia.
In assay [5] the test system is Vaccinia virus. Kind of assay: Antiviral activity against Vaccinia virus infected in human HEL cells. The class given is functional, organism-based. Particulars: Orthopoxvirus vaccinia.
Another assay has as its system HEL. Description: Cytotoxicity against human HEL cells assessed as reduction in cell growth. In kind it is functional.
The subject of assay [6] is Vaccinia virus. Description: Antiviral activity against Vaccinia virus infected in African green monkey CV-1 cells assessed as reduction in virus-induced cytopathic effect incubated for 5 days by colorimetric analysis. In kind it is functional, organism-based. Particulars: Orthopoxvirus vaccinia, CV-1, 120 h.
The mark [7] stands for this setting: Orthopoxvirus vaccinia, VG9, BSC-1.

For the compound `CC1(C)[C@@H]2CC=C(CNC(=O)C34CC5CC(CC(C5)C3)C4)[C@H]1C2`, the IC50 (in general, the midpoint of a concentration-inhibition curve) was found to be 1700 nM in the assay on Vaccinia virus [1], 2700 nM with Ectromelia virus and 4700 nM in the assay on Cowpox virus.
With `CC1(C)[C@@H]2CC[C@@]1(C)[C@@H](NC(=O)c1ccc(Cl)cc1)C2`, the figures for the concentration for half-maximal inhibition (IC50) in the assay on Vaccinia virus [1], in the assay with Ectromelia virus and in the assay with Cowpox virus were 240 nM, 600 nM and 2400 nM, respectively.
As to `C#C[C@]1(OC(=O)CCCCCC)CC[C@H]2[C@@H]3CCC4=CC(=O)CC[C@@H]4[C@H]3CC[C@@H]21`, the EC50 (in general, the concentration that produces a half-maximal response) in the assay with Vaccinia virus [2] (setting [7]) amounted to 2700 nM; in the assay with Vaccinia virus [3] (Orthopoxvirus vaccinia, BSC-1), 3900 nM.
On to `CC1(C)/C(=N\NC(=O)c2ccc(Cl)cc2)[C@]2(C)CC[C@H]1C2`, for which the half-maximal inhibitory concentration (IC50) worked out at 900 nM in the assay on Vaccinia virus [1], 8000 nM in the assay with Ectromelia virus and 4900 nM in the assay on Cowpox virus.
`CC(=O)C1=C2C=CCCN2C(=O)NC1c1ccccc1Br` (stereo unspecified): the IC50 with Vaccinia virus [4] turned out to be 300 nM.
Regarding `O=C1N(Nc2ccc(Br)c(Cl)c2)C(=O)C23C4C=CC5C4C4C(C=CC42)C153`, the midpoint of inhibition in the assay on Vaccinia virus [5], the IC50, lay at 600 nM. Besides, the CC50 (in general, the concentration giving 50% cytotoxicity) in the assay with HEL was more than 100000 nM.
Take `Cc1cc(NN2C(=O)C34C5C=CC6C5C5C3C=CC5C64C2=O)ccc1[N+](=O)[O-]`: in the assay on Vaccinia virus [5], the IC50 was 3000 nM. Further, the CC50 in the assay with HEL is more than 100000 nM.
Regarding `CCCCCCCCCCCCCCCCCCOCCOP1(=O)COCC(Cn2ccc(N)nc2=O)O1` (stereo unspecified), in the assay with Vaccinia virus [4], the EC50 was 1100 nM.
For the compound `CCCCCCCCCCCCCCCCOCCCOP1(=O)COCC(Cn2ccc(N)nc2=O)O1` (stereo unspecified), the EC50 in the assay on Vaccinia virus [4] came out at 3800 nM.
On to `O=C1N(Nc2ccc(C(F)(F)F)cc2)C(=O)C23C4C=CC5C4C4C(C=CC42)C153`, for which half-maximal inhibition with Vaccinia virus [5] (IC50) required 1200 nM. Moreover, in the assay on HEL, the CC50 was more than 100000 nM.
Regarding `N=c1ccn2c(n1)O[C@H]1[C@H](O)[C@@H](CO)O[C@H]12` [ANCITABINE], the concentration for a half-maximal effect (EC50) in the assay with Vaccinia virus [6] was 10000 nM.
Turning to `COc1ccc(C[C@H]2NC[C@H](O)[C@H]2OC(C)=O)cc1` [ANISOMYCIN], the EC50 in the assay with Vaccinia virus [6] was 250 nM.
As for `Cc1cc(C2CCCCC2)n(O)c(=O)c1` [CICLOPIROX], the EC50 in the assay with Vaccinia virus [2] (setting [7]) is 6900 nM; with Vaccinia virus [3] (Orthopoxvirus vaccinia, BSC-1), 5800 nM.
With `C[C@@H]1C[C@@H]([C@H](O)CC2CC(=O)NC(=O)C2)C(=O)[C@@H](C)C1` [CYCLOHEXIMIDE], the EC50 in the assay with Vaccinia virus [6] turned out to be 2000 nM.
Regarding `CO[C@H]1C[C@H](O[C@H]2CC[C@]3(C=O)[C@H]4CC[C@]5(C)[C@@H](C6=CC(=O)OC6)CC[C@]5(O)[C@@H]4CC[C@]3(O)C2)O[C@H](C)[C@H]1O` [CYMARIN], the EC50 in the assay with Vaccinia virus [6] turned out to be 250 nM.
Take `C[C@H]1O[C@@H](O[C@H]2[C@@H](O)C[C@H](O[C@H]3[C@@H](O)C[C@H](O[C@H]4CC[C@@]5(C)[C@H](CC[C@@H]6[C@@H]5C[C@@H](O)[C@]5(C)[C@@H](C7=CC(=O)OC7)CC[C@]65O)C4)O[C@@H]3C)O[C@@H]2C)C[C@H](O)[C@@H]1O` [DIGOXIN]: the EC50 in the assay with Vaccinia virus [6] was 250 nM.
With `CC[C@H]1CN2CCc3cc(OC)c(OC)cc3[C@@H]2C[C@@H]1C[C@H]1NCCc2cc(OC)c(OC)cc21` [EMETINE], the EC50 in the assay on Vaccinia virus [6] was 250 nM.
In the case of `CC(=O)O[C@H]1C[C@H](O[C@H]2[C@@H](O)C[C@H](O[C@H]3[C@@H](O)C[C@H](O[C@H]4CC[C@@]5(C)[C@H](CC[C@@H]6[C@@H]5C[C@@H](O)[C@]5(C)[C@@H](C7=CC(=O)OC7)CC[C@]65O)C4)O[C@@H]3C)O[C@@H]2C)O[C@H](C)[C@H]1O[C@@H]1O[C@H](CO)[C@@H](O)[C@H](O)[C@H]1O` [LANATOSIDE C], the EC50 in the assay with Vaccinia virus [6] stood at 500 nM.
For the compound `COC(=O)Nc1nc2cc(C(=O)c3ccccc3)ccc2[nH]1` [MEBENDAZOLE], the EC50 with Vaccinia virus [2] (setting [7]) turned out to be 9200 nM; with Vaccinia virus [3] (Orthopoxvirus vaccinia, BSC-1) it was 5600 nM.
As to `CN(Cc1cnc2nc(N)nc(N)c2n1)c1ccc(C(=O)N[C@@H](CCC(=O)O)C(=O)O)cc1` [METHOTREXATE], the EC50 was determined as 6100 nM with Vaccinia virus [2] (setting [7]) and 2200 nM in the assay on Vaccinia virus [3] (Orthopoxvirus vaccinia, BSC-1).
`COc1c(C)c2c(c(O)c1C/C=C(\C)CCC(=O)OCCN1CCOCC1)C(=O)OC2` [MYCOPHENOLATE MOFETIL]: the EC50 was 100 nM in the assay with Vaccinia virus [2] (setting [7]) and 200 nM with Vaccinia virus [3] (Orthopoxvirus vaccinia, BSC-1).
As for `COc1c(C)c2c(c(O)c1C/C=C(\C)CCC(=O)O)C(=O)OC2` [MYCOPHENOLIC ACID], the EC50 in the assay with Vaccinia virus [6] is 1000 nM.
In the case of `CO[C@H]1[C@H](O)[C@H](O[C@H]2CC[C@@]3(C)[C@H](CC[C@@H]4[C@@H]3CC[C@]3(C)[C@@H](C5=CC(=O)OC5)CC[C@]43O)C2)O[C@@H](C)[C@@H]1O` [NERIIFOLIN], the EC50 in the assay on Vaccinia virus [6] amounted to 5000 nM.
For `C[C@@H]1O[C@@H](O[C@H]2C[C@@H](O)[C@]3(CO)[C@H]4[C@H](O)C[C@]5(C)[C@@H](C6=CC(=O)OC6)CC[C@]5(O)[C@@H]4CC[C@]3(O)C2)[C@H](O)[C@H](O)[C@H]1O` [OUABAIN], in the assay with Vaccinia virus [6], the half-maximal effective concentration (EC50) came to 250 nM.
In the case of `N#CC1(c2ccc(NC(=O)c3cccnc3NCc3ccncc3)cc2)CCCC1` [RIVOCERANIB], the EC50 turned out to be 2700 nM in the assay on Vaccinia virus [2] (setting [7]) and 2500 nM in the assay on Vaccinia virus [3] (Orthopoxvirus vaccinia, BSC-1).
`COc1ccc(/C=C/C(=O)Nc2ccccc2C(=O)O)cc1OC` [TRANILAST]: the EC50 came to 800 nM in the assay with Vaccinia virus [2] (setting [7]) and 900 nM in the assay with Vaccinia virus [3] (Orthopoxvirus vaccinia, BSC-1).
`CCOC(=O)c1c(CSc2ccccc2)n(C)c2cc(Br)c(O)c(CN(C)C)c12` [UMIFENOVIR]: the EC50 in the assay with Vaccinia virus [2] (setting [7]) was determined as 9700 nM; in the assay on Vaccinia virus [3] (Orthopoxvirus vaccinia, BSC-1), 6600 nM.
As to RAUWOLFIA SERPENTINA, the EC50 in the assay on Vaccinia virus [2] (bsc-1) amounted to 9800 nM; with Vaccinia virus [3] (bsc-1) it was 9200 nM.
